According to PMC4662070 (Nature communications, 2015):

Target: FABP5 (Homo sapiens, UniProt Q01469)
Experiment: fluorescence titration
Type: binding

Chain of FABP5 (Q01469 2-135): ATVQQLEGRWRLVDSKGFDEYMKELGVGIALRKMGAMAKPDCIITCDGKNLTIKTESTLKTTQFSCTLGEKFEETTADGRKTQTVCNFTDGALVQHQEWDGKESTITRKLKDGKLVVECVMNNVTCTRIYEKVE

Kd: 70 ± 6.4 nM
Structure (SMILES): O=S(=O)(O)c1cccc2cccc(Nc3ccccc3)c12 [ANS, 1-anilinonaphthalene-8-sulfonic acid]
